Source: ChEMBL document CHEMBL3885881, “DrugMatrix”

Species on record: Rattus norvegicus
Experiment: DrugMatrix - Regimen: Daily Repeat
Type: toxicity, organism-based, Sprague-Dawley
Parameters: regimen Daily Repeat, gender Male, age 6-8 weeks
Details: in vivo, iv, vehicle 100 % SALINE; for ABSOLUTE BASOPHIL / ABSOLUTE EOSINOPHIL / ABSOLUTE LYMPHOCYTE / ABSOLUTE MONOCYTE / ABSOLUTE SEGMENTED NEUTROPHIL / BASOPHIL / EOSINOPHIL / ERYTHROCYTE COUNT / HEMATOCRIT / HEMOGLOBIN / LEUKOCYTE COUNT / LYMPHOCYTE / MEAN CORPUSCULAR HEMOGLOBIN / MEAN CORPUSCULAR HEMOGLOBIN CONCENTRATION / MEAN CORPUSCULAR VOLUME / MONOCYTE / NEUTROPHIL / NUCLEATED RED BLOOD CELLS / PLATELET COUNT: tissue Blood; for ALANINE AMINOTRANSFERASE / ALBUMIN / ALKALINE PHOSPHATASE / ASPARTATE AMINOTRANSFERASE / BLOOD UREA NITROGEN / CARBON DIOXIDE / CHLORIDE / CHOLESTEROL / CREATINE PHOSPHOKINASE / CREATININE / GLUCOSE / LACTATE DEHYDROGENASE / LIPASE / PHOSPHORUS / POTASSIUM / SODIUM / TOTAL BILIRUBIN / TOTAL PROTEIN / URIC ACID: tissue Plasma
[1] = 0.08 mg/kg, 120 h, dose level Low, time 5 day
[2] = 0.3 mg/kg, 72 h, dose level High, time 3 day
[3] = 0.3 mg/kg, 120 h, dose level High, time 5 day

## CC[C@]1(O)C[C@@H]2CN(CCc3c([nH]c4ccccc34)[C@@](C(=O)OC)(c3cc4c(cc3OC)N(C)[C@H]3[C@@](O)(C(=O)OC)[C@H](OC(C)=O)[C@]5(CC)C=CCN6CC[C@]43[C@@H]65)C2)C1 [VINBLASTINE]
[1]
  ABSOLUTE BASOPHIL: 0 CELLS/uL
  ABSOLUTE EOSINOPHIL: 0 CELLS/uL
  ABSOLUTE LYMPHOCYTE: 7180.33 CELLS/uL
  ABSOLUTE MONOCYTE: 26.33 CELLS/uL
  ABSOLUTE SEGMENTED NEUTROPHIL: 293.33 CELLS/uL
  BASOPHIL: 0%
  EOSINOPHIL: 0%
  ERYTHROCYTE COUNT: 5.15 x10E6/uL
  HEMATOCRIT: 32.43%
  HEMOGLOBIN: 13 G/DL
  LEUKOCYTE COUNT: 7.5 x10E3/uL
  LYMPHOCYTE: 95.67%
  MEAN CORPUSCULAR HEMOGLOBIN: 25.27 pg
  MEAN CORPUSCULAR HEMOGLOBIN CONCENTRATION: 40.07 G/DL
  MEAN CORPUSCULAR VOLUME: 63.1 fL
  MONOCYTE: 0.33%
  NEUTROPHIL: 4%
  NUCLEATED RED BLOOD CELLS: 0 /100WBC
  PLATELET COUNT: 1437 x10E3/uL
  ALANINE AMINOTRANSFERASE: 44 u/L
  ALBUMIN: 3.93 G/DL
  ALKALINE PHOSPHATASE: 340.67 u/L
  ASPARTATE AMINOTRANSFERASE: 88.67 u/L
  BLOOD UREA NITROGEN: 16.67 mg/dL
  CARBON DIOXIDE: 28 mmol/L
  CHLORIDE: 101.33 MEQ/L
  CHOLESTEROL: 69.67 mg/dL
  CREATINE PHOSPHOKINASE: 599 u/L
  CREATININE: 0.2 mg/dL
  GLUCOSE: 212 mg/dL
  LACTATE DEHYDROGENASE: 334.67 u/L
  LIPASE: 10.67 u/L
  PHOSPHORUS: 13.3 mg/dL
  POTASSIUM: 5.71 MEQ/L
  SODIUM: 141.27 MEQ/L
  TOTAL BILIRUBIN: 0.2 mg/dL
  TOTAL PROTEIN: 5.83 G/DL
  URIC ACID: 1.77 mg/dL
[2]
  ABSOLUTE BASOPHIL: 0 CELLS/uL
  ABSOLUTE EOSINOPHIL: 0 CELLS/uL
  ABSOLUTE LYMPHOCYTE: 5650.33 CELLS/uL
  ABSOLUTE MONOCYTE: 34.67 CELLS/uL
  ABSOLUTE SEGMENTED NEUTROPHIL: 381.67 CELLS/uL
  BASOPHIL: 0%
  EOSINOPHIL: 0%
  ERYTHROCYTE COUNT: 4.96 x10E6/uL
  HEMATOCRIT: 31.5%
  HEMOGLOBIN: 12.67 G/DL
  LEUKOCYTE COUNT: 6.07 x10E3/uL
  LYMPHOCYTE: 93%
  MEAN CORPUSCULAR HEMOGLOBIN: 25.5 pg
  MEAN CORPUSCULAR HEMOGLOBIN CONCENTRATION: 40.23 G/DL
  MEAN CORPUSCULAR VOLUME: 63.4 fL
  MONOCYTE: 0.67%
  NEUTROPHIL: 6.33%
  NUCLEATED RED BLOOD CELLS: 0 /100WBC
  PLATELET COUNT: 588.33 x10E3/uL
  ALANINE AMINOTRANSFERASE: 129 u/L
  ALBUMIN: 4.03 G/DL
  ALKALINE PHOSPHATASE: 429 u/L
  ASPARTATE AMINOTRANSFERASE: 337.67 u/L
  BLOOD UREA NITROGEN: 15 mg/dL
  CARBON DIOXIDE: 31 mmol/L
  CHLORIDE: 102 MEQ/L
  CHOLESTEROL: 104 mg/dL
  CREATINE PHOSPHOKINASE: 645 u/L
  CREATININE: 0.16 mg/dL
  GLUCOSE: 167.33 mg/dL
  LACTATE DEHYDROGENASE: 246.33 u/L
  LIPASE: 10.67 u/L
  PHOSPHORUS: 11.6 mg/dL
  POTASSIUM: 5.31 MEQ/L
  SODIUM: 144.2 MEQ/L
  TOTAL BILIRUBIN: 0.47 mg/dL
  TOTAL PROTEIN: 5.83 G/DL
  URIC ACID: 1.07 mg/dL
[3]
  ABSOLUTE BASOPHIL: 0 CELLS/uL
  ABSOLUTE EOSINOPHIL: 11.33 CELLS/uL
  ABSOLUTE LYMPHOCYTE: 4520 CELLS/uL
  ABSOLUTE MONOCYTE: 22.67 CELLS/uL
  ABSOLUTE SEGMENTED NEUTROPHIL: 46 CELLS/uL
  BASOPHIL: 0%
  EOSINOPHIL: 0.33%
  ERYTHROCYTE COUNT: 5.7 x10E6/uL
  HEMATOCRIT: 34.73%
  HEMOGLOBIN: 13.5 G/DL
  LEUKOCYTE COUNT: 4.6 x10E3/uL
  LYMPHOCYTE: 98%
  MEAN CORPUSCULAR HEMOGLOBIN: 23.7 pg
  MEAN CORPUSCULAR HEMOGLOBIN CONCENTRATION: 38.87 G/DL
  MEAN CORPUSCULAR VOLUME: 61.03 fL
  MONOCYTE: 0.67%
  NEUTROPHIL: 1%
  NUCLEATED RED BLOOD CELLS: 0.33 /100WBC
  PLATELET COUNT: 95.67 x10E3/uL
  ALANINE AMINOTRANSFERASE: 423.33 u/L
  ALBUMIN: 3.6 G/DL
  ALKALINE PHOSPHATASE: 438.67 u/L
  ASPARTATE AMINOTRANSFERASE: 923 u/L
  BLOOD UREA NITROGEN: 14.67 mg/dL
  CARBON DIOXIDE: 33 mmol/L
  CHLORIDE: 96 MEQ/L
  CHOLESTEROL: 192.33 mg/dL
  CREATINE PHOSPHOKINASE: 622.67 u/L
  CREATININE: 0.1 mg/dL
  GLUCOSE: 121 mg/dL
  LACTATE DEHYDROGENASE: 415 u/L
  LIPASE: 10.67 u/L
  PHOSPHORUS: 10.6 mg/dL
  POTASSIUM: 5.16 MEQ/L
  SODIUM: 141.4 MEQ/L
  TOTAL BILIRUBIN: 5.67 mg/dL
  TOTAL PROTEIN: 5.83 G/DL
  URIC ACID: 0.7 mg/dL
